Results: patent publication US20090274636A1, “TOOTH ENAMEL DISSOLUTION INHIBITOR” (priority 2006, published 2009)

Assay: Phosphorus dissolution from sintered hydroxyapatite (tooth enamel model) in 2 wt. % citric acid, ICP-AES
Details: for Phosphorus Dissolution Rate (%): 2 wt. % citric acid, pH 2.5, shaken two days, negative control = 100%
Procedure: In order to evaluate the inhibitory activity of subject substances on the dissolution (decalcification) of tooth enamel, the following tests were conducted using sintered hydroxyapatite as a tooth enamel model.
Thus, 10 ml of test solution was prepared. The test solution (10 ml) and a piece (720 mg, 10×10×2 mm) of sintered hydroxyapatite (APP-100; PENTAX Corp.) were put into a 15-ml polypropylene tube and the tube was sealed. The tube was shaken horizontally at about 120 times per minute for two days. After the shaking, the amount of phosphorus dissolved from the sintered hydroxyapatite was measured in each test solution by high-frequency inductively coupled plasma atomic emission spectrophotometry (ICP-AES). Another test was conducted as a negative control in the same manner as above, using a 2 wt. % citric acid solution (adjusted to pH 2.5 with sodium hydrate) as a test solution. Still another test was conducted as a positive control in the same manner as above, using CaCl2 (10 mM) as a subject substance. Taking the amount of phosphorus dissolved in the negative control as 100%, the phosphorus dissolution rate (%) was calculated for each subject substance.

SMILES	Phosphorus Dissolution Rate (%) (subject substance 10 mM)	Phosphorus Dissolution Rate (%) (subject substance 0.2 wt. %)	Phosphorus Dissolution Rate (%) (subject substance 0.5 wt. %)	inhibitory effect on phosphorus dissolution from the sintered hydroxyapatite due to citric acid (in words) (summary of Table 1 results)
[Ca+2].[Cl-].[Cl-] [CaCl2, reference compound]	75.0%			
OC[C@H]1O[C@@H]2O[C@H]3[C@H](O)[C@@H](O)[C@@H](O[C@H]4[C@H](O)[C@@H](O)[C@@H](O[C@H]5[C@H](O)[C@@H](O)[C@@H](O[C@H]6[C@H](O)[C@@H](O)[C@@H](O[C@H]7[C@H](O)[C@@H](O)[C@@H](O[C@H]8[C@H](O)[C@@H](O)[C@@H](O[C@H]1[C@H](O)[C@H]2O)O[C@@H]8CO)O[C@@H]7CO)O[C@@H]6CO)O[C@@H]5CO)O[C@@H]4CO)O[C@@H]3CO [β-cyclodextrin]		98.6%	79.7%	effectively suppressed phosphorus dissolution
